Assay [1] addresses GABAA-R (rat brain cortical membranes). Briefly: Steroid inhibition of [35S]-TBPS binding (radioligand displacement). The note with it: in the presence of 5 μM GABA. How it is done: Steroid Inhibition of TBPS Binding
[35S]-t-Butylbicyclophosphorothionate (TBPS) binding assays using rat brain cortical membranes in the presence of 5 μM GABA has been described (Gee et al, J. Pharmacol. Exp. Ther. 1987, 241, 346-353; Hawkinson et al, Mol. Pharmacol. 1994, 46, 977-985; Lewin, A. H et al., Mol. Pharmacol. 1989, 35, 189-194).
Briefly, cortices are rapidly removed following decapitation of carbon dioxide-anesthetized Sprague-Dawley rats (200-250 g). The cortices are homogenized in 10 volumes of ice-cold 0.32 M sucrose using a glass/teflon homogenizer and centrifuged at 1500×g for 10 min at 4° C. The resultant supernatants are centrifuged at 10,000×g for 20 min at 4° C. to obtain the P2 pellets. The P2 pellets are resuspended in 200 mM NaCl/50 mM Na-K phosphate pH 7.4 buffer and centrifuged at 10,000×g for 10 min at 4° C. This washing procedure is repeated twice and the pellets are resuspended in 10 volumes of buffer. Aliquots (100 μL) of the membrane suspensions are incubated with 3 nM [^35S]-TBPS and 5 μL aliquots of test drug dissolved in dimethyl sulfoxide (DMSO) (final 0.5%) in the presence of 5 μM GABA. The incubation is brought to a final volume of 1.0 mL with buffer. […] Following a 90 min incubation at room temp, the assays are terminated by filtration through glass fiber filters (Schleicher and Schuell No. 32) using a cell harvester (Brandel) and rinsed three times with ice-cold buffer. Filter bound radioactivity is measured by liquid scintillation spectrometry. Non-linear curve fitting of the overall data for each drug averaged for each concentration is done using Prism (GraphPad). […] The concentration of test compound producing 50% inhibition (IC50) of specific binding and the maximal extent of inhibition (Imax) are determined for the individual experiments with the same model used for the overall data and then the means ±SEM.s of the individual experiments are calculated.
Various compounds are or can be screened to determine their potential as modulators of [^35S]-TBPS binding in vitro. These assays are or can be performed in accordance with the above discussed procedures.

The target in a further assay is T1, GABAA receptor α1β2γ2 (Homo sapiens, UniProt P14867+P47870).
T1 construct: expressed in transfected cells; host or cells: LTK cells (stably transfected)
T1 sequence (P14867 28-456): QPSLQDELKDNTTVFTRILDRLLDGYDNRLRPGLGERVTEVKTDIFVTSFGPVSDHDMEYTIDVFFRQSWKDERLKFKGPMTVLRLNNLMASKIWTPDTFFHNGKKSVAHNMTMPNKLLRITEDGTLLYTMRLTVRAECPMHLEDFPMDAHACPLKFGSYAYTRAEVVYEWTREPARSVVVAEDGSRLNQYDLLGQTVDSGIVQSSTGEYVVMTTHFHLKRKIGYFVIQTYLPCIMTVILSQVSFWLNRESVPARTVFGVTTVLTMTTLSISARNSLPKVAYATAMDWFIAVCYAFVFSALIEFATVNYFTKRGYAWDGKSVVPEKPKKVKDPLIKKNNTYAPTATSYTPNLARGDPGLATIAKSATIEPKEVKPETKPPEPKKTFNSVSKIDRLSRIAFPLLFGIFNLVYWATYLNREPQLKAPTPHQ
T1 sequence (P47870 25-512 limits assumed): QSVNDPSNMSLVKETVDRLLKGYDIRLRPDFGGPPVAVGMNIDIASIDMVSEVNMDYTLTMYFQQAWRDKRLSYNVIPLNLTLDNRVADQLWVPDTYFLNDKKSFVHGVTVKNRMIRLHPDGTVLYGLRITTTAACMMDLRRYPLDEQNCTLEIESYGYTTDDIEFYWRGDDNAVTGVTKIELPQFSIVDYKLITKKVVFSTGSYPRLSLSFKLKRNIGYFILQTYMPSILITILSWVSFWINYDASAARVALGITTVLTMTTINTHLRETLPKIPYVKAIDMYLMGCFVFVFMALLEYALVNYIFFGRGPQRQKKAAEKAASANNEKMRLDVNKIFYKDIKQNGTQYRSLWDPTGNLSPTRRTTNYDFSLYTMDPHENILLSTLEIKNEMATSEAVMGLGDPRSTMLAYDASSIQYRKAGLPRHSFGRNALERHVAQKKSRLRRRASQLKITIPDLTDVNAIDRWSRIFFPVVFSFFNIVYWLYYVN
T1 sequence (P18507 40-475 partner): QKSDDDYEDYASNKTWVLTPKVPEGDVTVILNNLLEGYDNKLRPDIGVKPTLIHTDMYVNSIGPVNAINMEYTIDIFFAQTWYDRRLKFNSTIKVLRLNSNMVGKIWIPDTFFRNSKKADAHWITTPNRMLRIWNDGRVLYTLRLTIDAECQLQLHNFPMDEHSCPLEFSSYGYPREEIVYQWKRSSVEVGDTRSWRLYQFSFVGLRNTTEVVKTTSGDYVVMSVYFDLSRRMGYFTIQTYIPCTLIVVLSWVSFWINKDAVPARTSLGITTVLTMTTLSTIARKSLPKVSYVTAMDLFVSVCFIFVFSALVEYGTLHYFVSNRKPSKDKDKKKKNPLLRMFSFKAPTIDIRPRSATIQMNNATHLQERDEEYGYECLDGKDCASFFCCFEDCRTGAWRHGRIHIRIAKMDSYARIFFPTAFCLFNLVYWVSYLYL
Kind of assay: Patch clamp electrophysiology, Qpatch in Ltk cells. The format is cell-based. The following applies: 10 μM test article, potentiation of GABA EC20 (2 μM) current, read-out: GABA (α1β2γ2) Qpatch in Ltk, % efficacy at 10 μM. How it is done:
(§1) Patch Clamp Electrophysiology of Recombinant α1β2γ2 and α4β3δ GABAA Receptors
(§2) Cellular electrophysiology is used to measure the pharmacological properties of our GABAA receptor modulators in heterologous cell systems. Each compound is tested for its ability to affect GABA mediated currents at a submaximal agonist dose (GABA EC20=2 μM). LTK cells are stably transfected with the α1β2γ2 subunits of the GABA receptor and CHO cells are transiently transfected with the α4β3δ subunits via the Lipofecatamine method. Cells were passaged at a confluence of about 50-80% and then seeded onto 35 mm sterile culture dishes containing 2 ml culture complete medium without antibiotics or antimycotics. Confluent clusters of cells are electrically coupled (Pritchett et al, Science, 1988, 242, 1306-1308.). Because responses in distant cells are not adequately voltage clamped and because of uncertainties about the extent of coupling (Verdoorn et al., Neuron 1990, 4, 919-928.), cells were cultivated at a density that enables the recording of single cells (without visible connections to other cells).
Whole cell currents were measured with HEKA EPC-10 amplifiers using PatchMaster software or by using the high throughput QPatch platform (Sophion). Bath solution for all experiments contained (in mM): NaCl 137 mM, KCl 4 mM, CaCl2 1.8 mM, MgCl2 1 mM, HEPES 10 mM, D-Glucose 10 mM, pH (NaOH) 7.4.. In some cases 0.005% cremophor was also added. Intracellular (pipette) solution contained: KCl 130 mM, MgCl2 1 mM, Mg-ATP 5 mM, HEPES 10 mM, EGTA 5 mM, pH 7.2. During experiments, cells and solutions were maintained at room temperature (19° C.-30° C.). For manual patch clamp recordings, cell culture dishes were placed on the dish holder of the microscope and continuously perfused (1 ml/min) with bath solution. After formation of a Gigaohm seal between the patch electrodes and the cell (pipette resistance range: 2.5 MΩ-6.0 MΩ; seal resistance range:>1 GΩ) the cell membrane across the pipette tip was ruptured to assure electrical access to the cell interior (whole-cell patch-configuration). For experiments using the QPatch system, cells were transferred as suspension to the QPatch system in the bath solution and automated whole cell recordings were performed.
Cells were voltage clamped at a holding potential of −80 mV. For the analysis of test articles, GABA receptors were stimulated by 2 μM GABA after sequential pre-incubation of increasing concentrations of the test article. Pre-incubation duration was 30 s and the duration of the GABA stimulus was 2 s. Test articles were dissolved in DMSO to form stock solutions (10 mM). Test articles were diluted to 0.01, 0.1, 1, and 10 μM in bath solution. All concentrations of test articles were tested on each cell. The relative percentage potentiation was defined as the peak amplitude in response to GABA EC20 in the presence of the test article divided by the peak amplitude in response to GABA EC20 alone, multiplied by 100.

For another assay, the target named is T2, GABAA receptor α4β3δ (Homo sapiens, UniProt P28472+P48169).
T2 construct: expressed in transfected cells; host or cells: CHO cells (transiently transfected, Lipofectamine)
T2 sequence (P48169 36-554): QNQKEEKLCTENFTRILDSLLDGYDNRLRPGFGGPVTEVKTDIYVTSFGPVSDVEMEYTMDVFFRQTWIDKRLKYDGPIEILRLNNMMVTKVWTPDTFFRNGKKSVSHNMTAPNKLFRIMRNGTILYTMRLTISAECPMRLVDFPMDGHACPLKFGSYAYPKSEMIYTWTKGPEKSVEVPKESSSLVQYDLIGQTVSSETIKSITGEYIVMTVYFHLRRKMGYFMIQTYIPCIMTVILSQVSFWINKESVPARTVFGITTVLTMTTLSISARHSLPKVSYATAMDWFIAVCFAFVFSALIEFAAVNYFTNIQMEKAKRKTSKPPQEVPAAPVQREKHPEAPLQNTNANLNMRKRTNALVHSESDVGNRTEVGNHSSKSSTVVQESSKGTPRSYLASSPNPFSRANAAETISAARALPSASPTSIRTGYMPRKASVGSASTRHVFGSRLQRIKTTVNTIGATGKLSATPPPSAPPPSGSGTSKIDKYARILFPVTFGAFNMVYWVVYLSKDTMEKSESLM
T2 sequence (P28472 26-473): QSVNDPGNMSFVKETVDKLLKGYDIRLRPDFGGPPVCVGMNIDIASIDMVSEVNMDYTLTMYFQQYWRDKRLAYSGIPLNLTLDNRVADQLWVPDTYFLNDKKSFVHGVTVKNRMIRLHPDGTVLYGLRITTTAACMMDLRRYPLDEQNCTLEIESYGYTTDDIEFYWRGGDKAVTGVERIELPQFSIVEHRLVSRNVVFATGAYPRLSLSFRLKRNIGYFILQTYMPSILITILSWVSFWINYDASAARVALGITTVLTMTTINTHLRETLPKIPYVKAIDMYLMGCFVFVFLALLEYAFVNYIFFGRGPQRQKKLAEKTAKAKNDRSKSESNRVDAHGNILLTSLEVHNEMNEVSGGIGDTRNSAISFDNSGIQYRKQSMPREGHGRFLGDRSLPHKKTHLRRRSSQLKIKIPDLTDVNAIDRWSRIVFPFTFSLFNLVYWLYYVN
T2 sequence (O14764 25-452 partner): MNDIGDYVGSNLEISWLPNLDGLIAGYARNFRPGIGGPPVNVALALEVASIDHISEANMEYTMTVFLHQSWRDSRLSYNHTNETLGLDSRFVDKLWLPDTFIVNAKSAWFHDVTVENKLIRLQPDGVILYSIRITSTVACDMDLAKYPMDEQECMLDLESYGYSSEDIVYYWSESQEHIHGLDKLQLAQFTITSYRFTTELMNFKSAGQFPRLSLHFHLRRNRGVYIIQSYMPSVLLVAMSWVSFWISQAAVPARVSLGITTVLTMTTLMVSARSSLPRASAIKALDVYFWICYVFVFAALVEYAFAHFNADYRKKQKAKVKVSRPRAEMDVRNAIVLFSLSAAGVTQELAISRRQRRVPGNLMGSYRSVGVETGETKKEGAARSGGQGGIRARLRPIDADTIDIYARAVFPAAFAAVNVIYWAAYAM
Briefly: Patch clamp electrophysiology, manual patch in CHO cells. It counts as cell-based. The note with it: 10 μM test article, potentiation of GABA EC20 (2 μM) current, read-out: GABA (α4β3δ) Manual patch in CHO, % efficacy at 10 μM. How it is done: as §1, §2
Whole cell currents were measured with HEKA EPC-10 amplifiers using PatchMaster software or by using the high throughput QPatch platform (Sophion). Bath solution for all experiments contained (in mM): NaCl 137 mM, KCl 4 mM, CaCl2 1.8 mM, MgCl2 1 mM, HEPES 10 mM, D-Glucose 10 mM, pH (NaOH) 7.4.. […]
In general terms: The patch-clamp technique gives a direct electrical read-out from membranes.

The results in this text go back to US10391106B2, “19-nor C3, 3-disubstituted C21-C-bound heteroaryl steroids and methods of use thereof” (Sage Therapeutics, Inc., priority 2013, dated 2019).

Structures are written as SMILES.

Take `Cc1nc(CC(=O)[C@H]2CC[C@H]3[C@@H]4CC[C@@H]5C[C@](C)(O)CC[C@@H]5[C@H]4CC[C@]23C)oc1C` [SA-1]: in assay [1], the IC50 (usually the concentration needed to halve the response being measured) was under 50 nM. Besides, the Emax at 10 µM is over 500% at GABAA receptor α1β2γ2 and 10 to 100% on GABAA receptor α4β3δ.
Regarding `C[C@@]1(O)CC[C@H]2[C@H](CC[C@@H]3[C@@H]2CC[C@]2(C)[C@@H](C(=O)Cc4ccccn4)CC[C@@H]32)C1` [SA-2], the IC50 in assay [1] was under 50 nM. For the same molecule, the Emax at 10 µM on GABAA receptor α1β2γ2 and at GABAA receptor α4β3δ was 100 to 500% in each case.
Turning to `Cn1ccnc1CC(=O)[C@H]1CC[C@H]2[C@@H]3CC[C@@H]4C[C@](C)(O)CC[C@@H]4[C@H]3CC[C@]12C` [SA-3], the IC50 in assay [1] lay in the range of 100 to 500 nM. Besides, the Emax at 10 µM on GABAA receptor α1β2γ2 is 100 to 500%.
Regarding `Cc1cccc(CC(=O)[C@H]2CC[C@H]3[C@@H]4CC[C@@H]5C[C@](C)(O)CC[C@@H]5[C@H]4CC[C@]23C)n1` [SA-4], the IC50 in assay [1] was under 50 nM. In addition, at GABAA receptor α1β2γ2, the Emax at 10 µM is 100 to 500%.
Turning to `C[C@@]1(O)CC[C@H]2[C@H](CC[C@@H]3[C@@H]2CC[C@]2(C)[C@@H](C(=O)Cc4ccccc4)CC[C@@H]32)C1` [SA-5], the IC50 in assay [1] is under 50 nM.
Regarding `C[C@@]1(O)CC[C@H]2[C@H](CC[C@@H]3[C@@H]2CC[C@]2(C)[C@@H](C(=O)Cc4nccs4)CC[C@@H]32)C1` [SA-7], the IC50 in assay [1] was under 50 nM. The Emax at 10 µM at GABAA receptor α1β2γ2 is over 500%.
On to `Cc1nc(CC(=O)[C@H]2CC[C@H]3[C@@H]4CC[C@@H]5C[C@](C)(O)CC[C@@H]5[C@H]4CC[C@]23C)sc1C` [SA-8], for which the IC50 in assay [1] was in the range of 50 to 100 nM.
Regarding `C[C@@]1(O)CC[C@H]2[C@H](CC[C@@H]3[C@@H]2CC[C@]2(C)[C@@H](C(=O)Cc4cnccn4)CC[C@@H]32)C1` [SA-9], the Emax at 10 µM on GABAA receptor α1β2γ2 was in the range of 100 to 500%.
For the molecule `C[C@@]1(O)CC[C@H]2[C@H](CC[C@@H]3[C@@H]2CC[C@]2(C)[C@@H](C(=O)Cc4cccnc4)CC[C@@H]32)C1` [SA-10], the IC50 in assay [1] is under 50 nM.
